Literature values as cited in patent publication US20060246153A1, “Herbal compositions for the teatment and prevention of prostate disorders” (priority 2003, published 2006).

System: localised prostate adenocarcinoma
Conditions: 28 mg a day in the diet for three weeks

SMILES: CC(C)=CCC/C(C)=C/C=C/C(C)=C/C=C/C(C)=C/C=C/C=C(C)/C=C/C=C(C)/C=C/C=C(\C)CCC=C(C)C [lycopene]
- oxidative damage to the DNA of the post-operative biopsy tissue: greatly reduced
- plasma levels of PSA (prostate-specific antigen): reduced
